A short description of this test: Inhibition of human serum factor D-mediated complement activation in rabbit erythrocytes assessed as reduction in rabbit erythrocyte hemolysis preincubated with human serum for 15 mins followed by addition of rabbit erythrocytes and Mg-EGTA measured after 30 mins.

For `NC(=O)c1nn(CC(=O)N2[C@@H]3C[C@@H]3C[C@H]2C(=O)Nc2cccc(Br)n2)c2ncccc12`, the IC50 (as a rule, the concentration that gives 50% inhibition) stood at 0.047 µM.

Take `NC(=O)c1nn(CC(=O)N2CCS[C@H]2C(=O)Nc2cccc(Br)n2)c2ncccc12`: the IC50 turned out to be 0.205 µM.

(Values after BindingDB's records for doi:10.1021/acsmedchemlett.6b00299 (University of Michigan, 2016).)
